From US20080146570A1, “Chemical Compounds” (ASTRAZENECA AB, priority 2005, published 2008)
pIC50: −log10 of the molar value.

Target: T1, human recombinant, purified wild type His-B-Raf protein kinase (Homo sapiens, UniProt P15056)
T1 construct: His
Assay: B-Raf In Vitro ELISA Assay
Format: biochemical
Conditions: ELISA of MEK1 phosphorylation; 2.5 nM B-Raf, 10 μM ATP; 1 hour preincubation at 25° C.
Method: B-Raf In Vitro ELISA Assay
Activity of human recombinant, purified wild type His-B-Raf protein kinase was determined in vitro using an enzyme-linked immunosorbent assay (ELISA) assay format, which measures phosphorylation of the B-Raf substrate, human recombinant, purified His-derived (detagged) MEK1. The reaction utilized 2.5 nM B-Raf, 0.15 μM […] and 10 μM adenosine triphosphate (ATP) in 40 mM N-(2-hydroxyethyl)piperazine-N′-(2-ethanesulfonic acid hemisodium salt (HEPES), 5 mM 1,4-dithio-DL-threitol (DTT), 10 mM MgCl2, 1 mM ethylenediaminetetraacetic acid (EDTA) and 0.2 M NaCl (1×HEPES buffer), with or without compound at various concentrations, in a total reaction volume of 25 μl in 384 well plates. B-Raf and compound were preincubated in 1×HEPES buffer for 1 hour at 25° C. Reactions were initiated with addition of MEK1 and ATP in 1×HEPES buffer and incubated at 25° C. for 50 minutes and reactions stopped by addition of 10 μl 175 mM EDTA (final concentration 50 mM) in 1×HEPES buffer. 5 μl of the assay mix was then diluted 1:20 into 50 mM EDTA in 1×HEPES buffer, transferred to 384 well black high protein binding plates and incubated overnight at 4° C. […] Blue fluorescent product was detected at excitation 325 and emission 420 using a TECAN Ultra plate reader. Data was graphed and IC50s calculated using Excel Fit (Microsoft).

T1 sequence (P15056 whole entry): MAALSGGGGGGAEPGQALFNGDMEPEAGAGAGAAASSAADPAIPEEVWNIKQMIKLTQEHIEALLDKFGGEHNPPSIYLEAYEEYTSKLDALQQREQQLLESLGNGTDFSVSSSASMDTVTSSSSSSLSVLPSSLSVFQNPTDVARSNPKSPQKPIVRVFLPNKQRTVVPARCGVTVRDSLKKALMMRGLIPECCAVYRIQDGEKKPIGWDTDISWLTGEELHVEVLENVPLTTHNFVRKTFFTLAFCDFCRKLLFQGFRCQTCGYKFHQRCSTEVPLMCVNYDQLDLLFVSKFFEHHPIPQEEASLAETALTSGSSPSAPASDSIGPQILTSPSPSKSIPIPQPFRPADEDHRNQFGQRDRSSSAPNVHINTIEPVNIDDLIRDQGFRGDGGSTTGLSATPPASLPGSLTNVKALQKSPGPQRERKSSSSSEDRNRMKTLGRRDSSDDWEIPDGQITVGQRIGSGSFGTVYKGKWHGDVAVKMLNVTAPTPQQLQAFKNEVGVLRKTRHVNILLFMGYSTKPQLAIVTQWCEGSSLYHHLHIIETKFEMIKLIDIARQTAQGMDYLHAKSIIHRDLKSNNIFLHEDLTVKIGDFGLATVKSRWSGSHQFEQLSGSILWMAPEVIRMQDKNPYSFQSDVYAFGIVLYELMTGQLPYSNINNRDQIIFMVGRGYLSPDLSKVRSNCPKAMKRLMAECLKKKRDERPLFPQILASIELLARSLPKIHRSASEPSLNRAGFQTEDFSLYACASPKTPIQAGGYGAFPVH

| pIC50 | Compound |
| --- | --- |
| 6.82 | Cc1ccc(NC(=O)c2cccc(C(C)(C)C#N)c2)cc1Nc1ccnc(-c2cccnc2)n1 [Example 2, 3-(1-Cyano-1-methylethyl)-N-{4-methyl-3-[(2-pyridin-3-ylpyrimidin-4-yl)amino]phenyl}benzamide] |
| 5.87 | Cc1ccc(NC(=O)c2cccc(C(C)(C)C#N)c2)cc1Nc1cc(NC2CC2)nc(-c2cccnc2)n1 [Example 4, 3-(Cyano-dimethyl-methyl)-N-[3-(6-cyclopropylamino-2-pyridin-3-yl-pyrimidin-4-ylamino)-4-methyl-phenyl]benzamide] |
